Measured values as given in patent publication US12025612B2, “Brown adipocyte progenitors in human skeletal muscle” (Energesis Pharmaceuticals, Inc., priority 2008, dated 2024).

What was measured:
[1] = system: UCP1 mRNA expression in fetal muscle CD34+ cells; experiment: UCP1 mRNA expression in cultured fetal muscle CD34+ cells, quantitative RT-PCR normalized to cyclophilin A; format: cell-based, human; details: rosiglitazone 1 μM
Method: UCP1 mRNA expression in fetal muscle CD34+ cells could be modulated by drug treatment. Cell-permeating cAMP derivatives strongly stimulated (7 to 8-fold) UCP1 mRNA expression in both primary cultured and expanded cells. The effects of cAMP derivatives, 8-bromo-cAMP, 0.25 mM or (4-chlorophenylthio)-cAMP, 0.25 mM (cAMP) on UCP1 mRNA expression in CD34+ cells in primary culture (PC) or expanded up to passage 3 (P3) are shown in FIG. 3B. All the cells were grown for 4-6 days in EGM2 medium and then placed for 8-12 days in the adipogenic medium described under Materials and Methods. The results are means±s.e.m. of arbitrary values normalized using the corresponding cyclophilin A values. They are expressed in % of their respective untreated (control) values considered as 100% (*p<0.05, n=3-6).
Rosiglitazone, a PPARγ agonist, had no effect in primary culture cells but strongly stimulated (8-fold) UCP1 mRNA expression in expanded cells. The results are expressed as in FIG. 3B (**p<0.01, n=4-7). […]
Total cell RNA was prepared using the kit NucleoSpin® RNAII (Clontech, Palo Alto, Calif.) or Extract-all solution (Eurobio, Courtaboeuf, France) and quantified by Biophotometry (Biophotometer, Eppendor). […] Quantitative real-time PCR was performed using ABI rapid thermal cycler system, and a SYBR Green PCR master mix (Applied Biosystems, Foster City, Calif.). […]

[2] = system: UCP1 mRNA expression in human skeletal muscle; experiment: UCP1 mRNA expression in vastus lateralis muscle biopsies of obese type 2 diabetic patients before and after rosiglitazone, quantitative RT-PCR; format: in vivo; details: for UCP1 mRNA level after treatment (Rosi), normalized to cyclophilin A: after 8 weeks
Method: Since the PPARγ agonist rosiglitazone was a strong inducer of UCP1 mRNA expression in muscle CD34+ cells in culture, the effect of this compound in vivo in humans was investigated. Vastus lateralis muscle biopsies from 7 obese patients with type 2 diabetes mellitus treated for the management of their metabolic syndrome with rosiglitazone were used. The biopsies were obtained before and after 8 weeks of treatment with rosiglitazone (2×4 mg per day). […] In that study rosiglitazone, concomitantly with the improvement in insulin sensitivity, increased the level of expression of UCP1 in muscle by about 1.6-fold. […] The results are the means±s.e.m. of arbitrary values normalized using the corresponding cyclophilin A values (n=7, *p<0.05 vs. control).
In FIG. 5, showing UCP1 mRNA levels in skeletal muscle biopsies from a patient group (n=7), “control” corresponds to levels before treatment, and “Rosi” corresponds to levels after treatment (8 weeks) with rosiglitazone. Being a longitudinal study the effect of rosiglitazone on UCP1 levels in each individual (comparison of individual values for the “control”-before and “Rosi”-after conditions) were determined. Starting with 25 ng cDNA (produced by reverse transcription of RNA) the threshold of detection (Ct) during real-time PCR was about 22 for UCP1 and about 18 for cyclophilin.
Human fetal tissues were obtained anonymously, following spontaneous, voluntary or therapeutic terminations of pregnancy, from Magee Women Hospital, University of Pittsburgh, in compliance with the Institutional Review Board protocol. Developmental age (16 to 24 weeks of gestation) was estimated by measuring foot length. Informed consent to the use of fetal tissues was obtained from the patients in all instances. Adult human discarded abdominal subcutaneous WAT, originating from 45-55 year old patients undergoing plastic surgery performed one year after gastric bypass, was kindly provided by Dr Peter Rubin (Division of Plastic Surgery, University of Pittsburgh). The adult skeletal muscle tissue used for cell sorting was obtained post mortem from 50-78 year-old donors. The adult skeletal muscle used for the first group of RT-PCR studies was obtained from the rectus abdominus during surgery for either lap banding, inguinal hernia or hysterectomy of 10 lean male and female subjects. All subjects agreed to donate muscle samples during their operations and the protocol was approved by the Medical Ethical Review Committee of Deakin University. The average ages were 45±3 years and the average body mass index was 22.2±0.8. The adult skeletal muscle used for the second group of RT-PCR studies was obtained from the vastus lateralis of 7 obese type 2 diabetic male and female patients before and after 8 weeks of treatment with rosiglitazone (2×4 mg per day). The average age was 63±4 years and the average body mass index was […]. The complete clinical profile of the patients has been described in a previous publication. All subjects agreed to donate muscle samples, and the protocol was approved by the Medical Ethical Review Committee of Maastricht University.
Total cell RNA was prepared using the kit NucleoSpin® RNAII (Clontech, Palo Alto, Calif.) or Extract-all solution (Eurobio, Courtaboeuf, France) and quantified by Biophotometry (Biophotometer, Eppendor). Oligo-dT primed First strand cDNA were synthesized using the Superscript™ II RNase H Reverse Transcription kit (Invitrogen, Carlsbad, Calif.) and oligo-dT primers or the High Capacity cDNA Reverse Transcription kit (Applied Biosystems, Foster City, Calif.) and random primers. Quantitative real-time PCR was performed using ABI rapid thermal cycler system, and a SYBR Green PCR master mix (Applied Biosystems, Foster City, Calif.). Cyclophilin A was used as a control to account for any variations due to the efficiency of the reverse transcription. […]

CN(CCOc1ccc(CC2SC(=O)NC2=O)cc1)c1ccccn1 (centres unmarked) [rosiglitazone]
stimulation of UCP1 mRNA expression ([1]; CD34+ cells expanded up to passage 3 (P3)): 8 fold
effect on UCP1 mRNA expression ([1]; CD34+ cells in primary culture (PC)): no effect
increase of the level of expression of UCP1 in muscle ([2]; 7 obese type 2 diabetic patients, 8 weeks, 2×4 mg per day, after vs before treatment, mean): about 1.6 fold
UCP1 level at end of treatment in % of before treatment ([2]; Patient 1, 8 weeks): 150%
UCP1 level increase, end of treatment vs. before ([2]; Patient 1, 8 weeks): 50%
UCP1 mRNA level after treatment (Rosi), normalized to cyclophilin A ([2]; Patient 1): 652 arbitrary units
UCP1 level at end of treatment in % of before treatment ([2]; Patient 2, 8 weeks): 100%
UCP1 mRNA level after treatment (Rosi), normalized to cyclophilin A ([2]; Patient 2): 453 arbitrary units
UCP1 level at end of treatment in % of before treatment ([2]; Patient 3, 8 weeks): 180%
UCP1 level increase, end of treatment vs. before ([2]; Patient 3, 8 weeks): 80%
UCP1 mRNA level after treatment (Rosi), normalized to cyclophilin A ([2]; Patient 3): 677 arbitrary units
UCP1 level at end of treatment in % of before treatment ([2]; Patient 4, 8 weeks): 280%
UCP1 level increase, end of treatment vs. before ([2]; Patient 4, 8 weeks): 180%
UCP1 mRNA level after treatment (Rosi), normalized to cyclophilin A ([2]; Patient 4): 730 arbitrary units
UCP1 level at end of treatment in % of before treatment ([2]; Patient 5, 8 weeks): 108%
UCP1 level increase, end of treatment vs. before ([2]; Patient 5, 8 weeks): 8%
UCP1 mRNA level after treatment (Rosi), normalized to cyclophilin A ([2]; Patient 5): 600 arbitrary units
UCP1 level at end of treatment in % of before treatment ([2]; Patient 6, 8 weeks): 410%
UCP1 level increase, end of treatment vs. before ([2]; Patient 6, 8 weeks): 310%
UCP1 mRNA level after treatment (Rosi), normalized to cyclophilin A ([2]; Patient 6): 556 arbitrary units
UCP1 level at end of treatment in % of before treatment ([2]; Patient 7, 8 weeks): 110%
UCP1 level increase, end of treatment vs. before ([2]; Patient 7, 8 weeks): 10%
UCP1 mRNA level after treatment (Rosi), normalized to cyclophilin A ([2]; Patient 7): 142 arbitrary units
